According to PMC6272348, “Four New Pentasaccharide Resin Glycosides from Ipomoea cairica with Strong α-Glucosidase Inhibitory Activity” (Molecules, 2015):

target: α-glucosidase; assay: α-glucosidase inhibition assay (PNPG substrate); format: biochemical; conditions: pH 6.8, 37 °C, 10 min, 0.01 M PNPG substrate, 1 U/mL enzyme; means ± SD of three independent replicates; read-out: α-Glucosidase Inhibition Contstant (IC50)
Experimental: The a-glucosidase inhibition assay was performed according to a slightly modified method of Pierre et al.. α-Glucosidase was purchased from Sigma (San Francisco, CA, USA, No. M0035-15). The inhibition was measured spectrophotometrically at pH 6.8 and at 37 °C for 10 min, using 0.01 M p-nitrophenyl a-D-glucopyranoside (PNPG) from Sigma (No. M0103) as a substrate and 1 U/mL of enzyme, in 0.067 M KH2PO4-Na2HPO4 buffer. […] The increment in absorption at 410 nm due to the hydrolysis of PNPG by α-glucosidase was monitored continuously with an automatic multi-functional microplate reader.

In order of rising IC50:
1. CCCCCC1CCCCCCCCCC(=O)OC2C(OC(C)C(OC3OC(C)C(OC4OC(C)C(OC(=O)C(C)CC)C(OC(=O)C=Cc5ccccc5)C4O)C(OC4OC(C)C(O)C(O)C4O)C3OC(=O)C(C)CC)C2O)OC2C(O1)OC(CO)C(O)C2O [Compound 1, (S)-jalapinolic acid 11-O-α-L-rhamnopyranosyl-(1→3)-O-[3-O-trans-cinnamoyl-4-O-(S)-2-methyl-butyryl-α-L-rhamnopyranosyl-(1→4)]-O-[2-O-(S)-2-methylbutyryl]-α-L-rhamnopyranosyl-(1→4)-O-α-L-rhamnopyranosyl-(1→2)-O-β-D-glucopyranoside, intramolecular 1,2''-ester]  21.4 ± 2.9 µM
2. CCCCCC1CCCCCCCCCC(=O)OC2C(OC(C)C(OC3OC(C)C(OC4OC(C)C(OC(=O)C(C)CC)C(OC(=O)C=Cc5ccccc5)C4O)C(OC4OC(C)C(O)C(O)C4O)C3OC(=O)CCC)C2O)OC2C(O1)OC(CO)C(O)C2O (stereo not shown) [Compound 2, Cairicoside II]  26.2 ± 4.6 µM
3. CCCCCCCCCC(=O)OC1C(OC2C(C)OC3OC4C(OC(CCCCC)CCCCCCCCCC(=O)OC3C2O)OC(CO)C(O)C4O)OC(C)C(OC2OC(C)C(OC(=O)C(C)CC)C(OC(=O)C=Cc3ccccc3)C2O)C1OC1OC(C)C(O)C(O)C1O (stereo not shown) [Compound 4, Cairicoside IV]  28.9 ± 1.4 µM
4. CCCCCCCC(=O)OC1C(OC2C(C)OC3OC4C(OC(CCCCC)CCCCCCCCCC(=O)OC3C2O)OC(CO)C(O)C4O)OC(C)C(OC2OC(C)C(OC(=O)C(C)CC)C(OC(=O)C=Cc3ccccc3)C2O)C1OC1OC(C)C(O)C(O)C1O (stereo not shown) [Compound 3, Cairicoside III]  30.4 ± 3.9 µM
